For six compounds, binding call and Kd results are on record in the AptaBench aptamer set (doi:10.1093/nar/gkaf219).

Holding throughout (conditions): 10 mM Tris-HCl, pH 7.4
Assay [1] deals with DNA aptamer or structured DNA CTTACGACGTGTGCTGTTGGTTCTAGGGGTAGGATGGCGTCGTAAG
Assay [2] deals with DNA aptamer or structured DNA CTTACGACTTTGGTTTCCTCGATTCGCATGGGTGGTAAGTCGTAAG
Assay [3] concerns DNA aptamer or structured DNA CTTACGACAGGCGGTGTGGTGCTGGGAATAGGGATGGTGTCGTAAG
Assay [4] relates to DNA aptamer or structured DNA CTTACGACTAGGTGTGGGTCGGCTCCGAATGGAGGGTAGTCGTAAG
For assay [5], the system named is DNA aptamer or structured DNA CTTACGACATGGGATGTGTAGTTAGTGGTCGGATCCGAGTCGTAAG
Assay [6] deals with DNA aptamer or structured DNA CTTACGACCTGTTCTGAGGGTCAACCTTTGGTGTAGTGGTCGTAAG
The test system of assay [7] is DNA aptamer or structured DNA CTTACGACACAGGGGGTGGCTAGGGTGCGCGGGAGCTGGTCGTAAG
The test system of assay [8] is DNA aptamer or structured DNA CTTACGACTAGGTGGGGGTCGGCCATGGGAGTGGGGTAGTCGTAAG
The test system of assay [9] is DNA aptamer or structured DNA CTTACGACTTTTGGGTGTCTGGGTGGGAGGTCGTAAG
Assay [10] relates to DNA aptamer or structured DNA CTTACGACTAGTTCCGGGTAGGGGTAGGCGTGGTTGTGGTCGTAAG
Assay [11] relates to DNA aptamer or structured DNA CTTACGACAAGGGATGTTTGTTAGTGTGTCGGATCTATGTCGTAAG
Assay [12] has as its system DNA aptamer or structured DNA CTTACGACTAGGTGTGGGTCGGCTCCGGATGGAGGGTAGTCGTAAG
In assay [13] the test system is DNA aptamer or structured DNA CTTACGACGGGTGCTGTTGGTTCTAGGGTTAGGATGGCGTCGTAAG
Assay [14] has as its system DNA aptamer or structured DNA CTTACGACGTGTGCTGTTGGTTCTAGGGTTAGGATGGCGTCGTAAG
Assay [15] concerns DNA aptamer or structured DNA CTTACGACTCAGGGGGAGGCTAGGGTGCGCGGAAGCTGGTCGTAAG
Assay [16] deals with DNA aptamer or structured DNA CTTACGACAATCTTTTGGGTGTTCTGGGTGAGGTGTTTGTCGTAAG
Assay [17] relates to DNA aptamer or structured DNA CTTACGACGGGTGCCGTTGGTTCTAGGGGTAGGATGGCGTCGTAAG
For assay [18], the system named is DNA aptamer or structured DNA TTCAAATCTGAGCAGCCTAGTTACTGACGGGTTTATAGTACTCGCACTGAGTCTAGATTTGAA
The subject of assay [19] is DNA aptamer or structured DNA TTCAAATCTTATGTACGTTCTATCGCATGGATGGGATTTTGGGTTACCTAGTCTAGATTTGAA
Assay [20] deals with DNA aptamer or structured DNA GGGACGACTAGGGCTTAGGGTTTAGGTGTGGGGTGTAAGTCGTCCC
The subject of assay [21] is DNA aptamer or structured DNA GGGACGACGGAAGGGTGTGCTGCGGTTTGGCTTCTGGCGTCGTCCC
The test system of assay [22] is DNA aptamer or structured DNA TTCAAATCTTGGTACGTTCTGCCTTTTCTTATTTTGCTTTGGGTTACCTAGTCTAGATTTGAA
Assay [23] deals with DNA aptamer or structured DNA TTCAAATCTGAGCAGCCTAGTTACTGACGGGTTTATAGTACTCGCATCGAGTCTAGATTTGAA
In assay [24] the test system is DNA aptamer or structured DNA GGGACGACGGGATTCGGATCGTGGAACAGTGCCTCGTCGTCGTCCC
The test system of assay [25] is DNA aptamer or structured DNA GGGACGACGGCTTGCATTGAGCAGAAGGGGTACACGCTGTCGTCCC
Assay [26] has as its system DNA aptamer or structured DNA GGGACGACGGGGCTGTGGGAGGGGGTTCATGGGTCCCGGTCGTCCC
The subject of assay [27] is DNA aptamer or structured DNA GGGACGACAGTGGCGTTTATGGGTCGGGTGTGGGAAATGTCGTCCC
Assay [28] deals with DNA aptamer or structured DNA GGGACGACGGTTGGCTTGGGTCGGGTGTGGGTGCGGCGTCGTCCC
In assay [29] the test system is DNA aptamer or structured DNA CTTACGACACCGGGATCCAGATGGGTAGTTTGATGTGTGTCGTAAG
Assay [30] deals with DNA aptamer or structured DNA GGGACGACGCAAATGGAAGCATTGGTTGTGTTCACACTGCTGGGTCGTCCC
Assay [31] concerns DNA aptamer or structured DNA GGGACGACTGCTTGGGTAGGTCGGGTTTGGGTTCGGCGGTCGTCCC
Assay [32] has as its system DNA aptamer or structured DNA CTTACGACCGGCGGAAGGCTGGAGGGGTTGGGGGAGGTGTCGTAAG
Assay [33] has as its system DNA aptamer or structured DNA GGGACGACGGTTGGCTTGGGGTCGGGTGTGGGTGCGGCGTCGTCCC
In assay [34] the test system is DNA aptamer or structured DNA CTTACGACGAGCGCGTGTGGCCGGCGTGAGGGAGGTGAGTCGTAAG
The subject of assay [35] is DNA aptamer or structured DNA GGGACGACGGCAGGGTGTTGGTGGGGTAGGTCAATGTAGTCGTCCC
For binding call in this document: call rule not given here.

Consider `CN1C2CCC1[C@@H](C(=O)O)[C@@H](OC(=O)c1ccccc1)C2` (some centres undefined), for which the binding call in assay [1], in [2], in [3], in assay [4], in assay [5] and in assay [6] was “no binding” throughout. Moreover, the binding call in assay [7] is listed as “binds”; in assay [8], “no binding”; in [9], “binds”; in [10], “no binding”; in [11], “binds”; in [12], “no binding”. Also, the binding call in [13] is “binds”; in assay [14], “no binding”; in assay [15] it was “no binding”; in assay [16] it was “no binding”; in assay [17] it was “no binding”.

For the compound `NCCc1c[nH]c2ccc(O)cc12`, the binding call in [18] is listed as “no binding”; in assay [1], “binds”; in assay [2], “no binding”; in [19], “no binding”; in assay [20] it was “no binding”; in [3], “no binding”. The binding call in assay [4] was “no binding”; in assay [5] it was “no binding”; in assay [6], “no binding”; in assay [7], “binds”; in assay [21], “no binding”; in [8], “no binding”. Also, the binding call is on record as “no binding” in assay [9]; “no binding” in [10]; “no binding” in assay [22]; “binds” in [11]; “no binding” in assay [12]; “binds” in [13]. The binding call was “no binding” in assay [23]; “binds” in assay [14]; “no binding” in assay [15]; “no binding” in [16]; “binds” in assay [17].

In the case of `NCCc1ccc(O)c(O)c1`, the binding call is reported as “no binding” in assay [18]; “binds” in assay [1]; “no binding” in assay [2]; “binds” in [19]; “binds” in assay [3]; “no binding” in [4]. Besides, the binding call is given as “binds” in assay [5]; “no binding” in assay [6]; “binds” in assay [7]; “no binding” in [8]; “no binding” in assay [9]; “binds” in [10]. In addition, the binding call in assay [22] is given as “no binding”; in assay [11], “no binding”; in assay [12], “no binding”; in assay [13] it was “binds”; in assay [23], “binds”; in assay [14], “binds”. Also, the values for the binding call in [15], in [16] and in [17] were “no binding”, “binds” and “binds”, respectively.

For the compound `c1ccc([C@H]2CN3CCSC3=N2)cc1`, the binding call is on record as “no binding” in assay [1]; “no binding” in assay [2]; “no binding” in [3]; “no binding” in [4]; “no binding” in [5]; “binds” in assay [7]. Besides, the binding call is “no binding” in [8]; “no binding” in assay [24]; “no binding” in assay [9]; “no binding” in assay [10]; “binds” in [11]; “no binding” in [25]. Also, the binding call in assay [12] is given as “no binding”; in assay [13], “binds”; in [26] it was “no binding”; in assay [14] it was “binds”; in assay [15], “no binding”; in [16], “no binding”. In addition, the binding call in [17] is on record as “no binding”.

Regarding `CC(C)Cc1ccc(C(C)C(=O)O)cc1` (centres undefined), the binding call in assay [3], in assay [4], in assay [5], in [6], in assay [7] and in assay [8] was “no binding” each time. In addition, the binding call in assay [9], in [11], in assay [12], in assay [13], in [15] and in [16] was “no binding” in each case. The binding call in assay [17] is reported as “no binding”.

Regarding `COC(=O)[C@@H]1C2CCC(C[C@@H]1OC(=O)c1ccccc1)N2C` (some centres undefined), the binding call is on record as “no binding” in assay [18]; “no binding” in assay [20]; “no binding” in assay [27]; “no binding” in [28]; “no binding” in [29]; “binds” in assay [30]. Besides, the binding call in assay [31] was “binds”; in assay [21], “no binding”; in assay [32] it was “binds”; in assay [24], “no binding”; in assay [22], “no binding”; in assay [33], “binds”. Besides, the binding call in [34], in assay [25], in assay [26] and in assay [35] was “no binding” each time. For the same compound, the Kd (in general, the equilibrium constant for the complex coming apart) in [1] was 235 nM; in assay [2], 239 nM; in [3] it was 266 nM; in assay [6], 216 nM; in assay [7], 76 nM; in [8] it was 270 nM. The Kd came to 67 nM in assay [9]; 70 nM in assay [10]; 115 nM in assay [11]; 510 nM in [12]; 57 nM in assay [13]; 98 nM in assay [14]. For the same compound, the Kd was determined as 245 nM in assay [15], 378 nM in [16] and 1350 nM in assay [17].
